Experimental data as given in the supplement of paper PMC10307832.

Columns and labels:
Experiment in all cases: relative viability (nuclei count vs DMSO), 5 days (fraction); higher = more cells survive
[1] = compound: Cc1nc(NC(=O)N2CCC[C@H]2C(N)=O)sc1-c1ccnc(C(C)(C)C(F)(F)F)c1 [Alpelisib] + N=C(N)NC(=N)NCCc1ccccc1 [Phenformin] (partner 250 µM)
Method in brief: (§1)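 Values are medians from duplicate plates. Each reflects relative viability, defined as the nuclei count of treated wells over that of vehicle wells. Lung cancer cell lines in 1536-well plates were pin-tool dosed one day after seeding with one drug alone or with a fixed anchor-drug dose plus five library-drug doses (not always all listed) in √10 steps, then fixed, stained and imaged at 4× after 5 days.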

[2] = compound: COc1cccc2cc(-c3nc([C@H]4CC[C@H](C(=O)O)CC4)n4ncnc(N)c34)[nH]c12 [OSI-027] + C[C@@H](Oc1cc(-c2cnn(C3CCNCC3)c2)cnc1N)c1c(Cl)ccc(F)c1Cl [Crizotinib] (partner 1 µM)
Method in brief: as §1

[3] = compound: CCCS(=O)(=O)Nc1ccc(F)c(C(=O)c2c[nH]c3ncc(-c4ccc(Cl)cc4)cc23)c1F [Vemurafenib] + Cc1nc(Nc2ncc(C(=O)Nc3c(C)cccc3Cl)s2)cc(N2CCN(CCO)CC2)n1 [Dasatinib] (partner 0.075 µM)
Method in brief: as §1

[4] = compound: COc1cccc2cc(-c3nc([C@H]4CC[C@H](C(=O)O)CC4)n4ncnc(N)c34)[nH]c12 [OSI-027] + O=C(CCCCCCC(=O)Nc1ccccc1)NO [Vorinostat] (partner 1 µM)
Method in brief: as §1

Cell Line	relative viability ([1]; first compound 0.04 µM)	relative viability ([1]; first compound 0.1265 µM)	relative viability ([1]; first compound 0.4 µM)	relative viability ([1]; first compound 1.265 µM)	relative viability ([1]; first compound 4 µM)	relative viability ([2]; first compound 0.01 µM)	relative viability ([2]; first compound 0.03162 µM)	relative viability ([2]; first compound 0.1 µM)	relative viability ([2]; first compound 0.3162 µM)	relative viability ([2]; first compound 1 µM)	relative viability ([3]; first compound 0.03162 µM)	relative viability ([3]; first compound 0.1 µM)	relative viability ([3]; first compound 1 µM)	relative viability ([4]; first compound 0.01 µM)	relative viability ([4]; first compound 0.03162 µM)	relative viability ([4]; first compound 0.1 µM)	relative viability ([4]; first compound 0.3162 µM)	relative viability ([4]; first compound 1 µM)	relative viability ([3]; first compound 0.3162 µM)
NCI-H2405	0.371	0.345	0.368	0.304	0.272	0.856	0.729	0.814	0.631	0.338	0.213	0.231	0.231	1.04	1.02	0.899	0.831	0.549	
NCI-H727	0.533	0.555	0.498	0.412	0.215	0.626	0.862	0.798	0.655	0.517	0.323		0.421	1.08	1.06	1.11	1.23	1.03	0.724
201T	0.437	0.485	0.428	0.348	0.349	1.05	1.11	1.08	1.03	0.847	0.525	0.521	0.523	0.938	0.934	0.961	0.952	0.828	0.622
H3255	0.352	0.375	0.336	0.25	0.335	0.842	0.838	0.76	0.886	0.587	0.36		0.371	0.729	0.935	0.693	0.795	0.652	0.446
NCI-H1395	0.458	0.395	0.46	0.374	0.434						0.415	0.411	0.403	0.633	0.745	0.476	0.645	0.567	
NCI-H1355	0.421	0.404	0.438	0.433	0.332	0.969	0.937	0.998	0.847	0.276	0.671	0.703	0.745	0.648	0.632	0.622	0.475	0.3	0.466
IA-LM						0.96	0.578	0.78	0.249	0.139				0.997	0.388	0.652	0.479	0.15	
HCC-827	0.424	0.419	0.338	0.371	0.303	0.924	0.969	0.915	1.01	0.649	0.386		0.348	0.61	0.851	0.768	0.852	0.475	0.399
NCI-H2085	0.73	0.631	0.782	0.698	0.621	0.807	0.852	0.825	0.812	0.586	0.244	0.273	0.256	0.714	0.73	0.76	0.648	0.549	0.515
